Measurements reported in patent US5753655A, “1-arylsulphonyl, arylcarbonyl and arylthiocarbonyl pyridazino derivatives and methods of preparation” (Ortho Pharmaceutical Corporation, priority 1996, dated 1998).

Tests used:
[1] = target: T1, rabbit uterine cytosolic progestin receptor (PR) (Oryctolagus cuniculus, UniProt P06186); test: Progestin Receptor Binding: competitive displacement of 3H-R5020; set-up: species or system rabbit (New Zealand rabbits); conditions: rabbit uterine cytosol, 4° C., 18 h, read-out: PR: concentration required to displace 50% of H3 labeled R5020 (IC50)
T1 construct: The high speed supernatant fraction is used as the receptor preparation; from tissue; host or cells: uterus of New Zealand rabbits, 200,000 G supernatant (cytosol)
T1 sequence (P06186 1-930): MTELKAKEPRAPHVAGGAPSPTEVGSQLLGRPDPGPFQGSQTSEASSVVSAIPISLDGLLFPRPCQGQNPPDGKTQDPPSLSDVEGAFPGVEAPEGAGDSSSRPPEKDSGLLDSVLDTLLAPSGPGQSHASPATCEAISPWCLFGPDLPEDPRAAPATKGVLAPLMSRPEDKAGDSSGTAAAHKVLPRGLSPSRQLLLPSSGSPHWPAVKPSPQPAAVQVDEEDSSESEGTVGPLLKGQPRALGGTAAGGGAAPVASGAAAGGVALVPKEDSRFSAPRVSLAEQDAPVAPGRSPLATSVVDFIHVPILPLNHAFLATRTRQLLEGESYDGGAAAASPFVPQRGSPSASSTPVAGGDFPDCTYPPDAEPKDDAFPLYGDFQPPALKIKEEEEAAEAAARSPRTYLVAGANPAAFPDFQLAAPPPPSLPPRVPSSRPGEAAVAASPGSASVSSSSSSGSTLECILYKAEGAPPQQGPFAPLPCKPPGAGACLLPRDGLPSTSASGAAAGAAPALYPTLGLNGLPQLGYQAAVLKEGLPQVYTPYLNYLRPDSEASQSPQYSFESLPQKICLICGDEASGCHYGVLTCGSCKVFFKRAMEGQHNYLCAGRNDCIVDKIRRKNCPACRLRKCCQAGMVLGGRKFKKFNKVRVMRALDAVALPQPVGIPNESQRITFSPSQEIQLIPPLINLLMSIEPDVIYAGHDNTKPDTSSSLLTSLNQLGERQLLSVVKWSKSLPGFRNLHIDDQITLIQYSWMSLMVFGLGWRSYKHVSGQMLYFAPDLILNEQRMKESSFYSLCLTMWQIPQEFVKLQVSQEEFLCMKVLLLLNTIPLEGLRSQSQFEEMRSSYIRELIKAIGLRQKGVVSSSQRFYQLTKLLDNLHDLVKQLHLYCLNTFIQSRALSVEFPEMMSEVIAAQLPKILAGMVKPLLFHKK
Protocol: Progestin Receptor Binding
The procedure used is essentially that of J. L. McGuire, C. D. Bariso and A. P. Shroff in Biochemistry 13, 319 (1974).
Uteri from New Zealand rabbits (1.5 to 2.5 kg) are placed in a cold buffer A (0.01M Tris-HCl, pH 8.0, 0.001M EDTA, 0.25M sucrose). The uteri are minced, washed and homogenized in cold buffer A. The homogenate (2 g wet tissue/mL buffer) is centrifuged at 200,000 G for 1 h at 4° C. The high speed supernatant fraction is used as the receptor preparation.
A competitive binding assay is performed by mixing ^3 H-R5020 with the receptor preparation and adding a known amount of unlabelled compound. This mixture is incubated at 4° C. for 18 h. The compounds bound to the receptor are separated from those free in solution using dextran coated charcoal and the amount of isotope bound to the receptor is determined. A depression of 20% or greater from control isotope binding is considered significant.
If there is no value reported in the T47D column that particular compound was not tested.

[2] = system: T47D human breast carcinoma cells; test: Ex Vivo Progestational Test: 3H-thymidine incorporation into T47-D cells; format: cell-based; conditions: for EC50: T47D, antagonist, printed with - sign, R5020 (promegestone) induced proliferation, read-out: T47D: antagonist EC50 against R5020 induced proliferation
Protocol: Ex Vivo Progestational Test
The incorporation of ^3 H-thymidine into T47-D cells was used to test the effect of compounds on T47-D cell proliferation.
T47-D (human breast line) was used employing standard sterile techniques. Cells were maintained in RPMI 1640 medium supplemented with fetal bovine serum (10%) and insulin (0.2 I.U./ml). Cells were trypsinized and passaged using standard procedures.
Cells were plated in 96-well microtiter plates by incubation in RPMI medium (phenol red-free, insulin-free, 5% charcoal treated fetal bovine serum) at 37° C. in an atmosphere of 95% air/5% CO2. Approximately 48 hours later, spent medium was replaced by fresh medium containing test compounds dissolved in DMSO (0.1% final concentration) and the cells were incubated for approximately 22 hours. ^3 H-Thymidine was added and the incubation allowed to proceed for another 4 hours. The test was then stopped with the addition of excess unlabeled thymidine. Cells were washed free of soluble thymidine, trypsinized and harvested by standard procedures. The amount of ^3 H-thymidine incorporated into DNA was determined by liquid scintillation counting. The primary standards were promegestone, a potent synthetic progestin and RU486, an antiprogestin. Test compounds were generally screened at concentrations ranging from 0.1 to 1000 nM. A compound was considered active if it stimulated or inhibited thymidine incorporation. Results were expressed as the concentration of test compounds needed to increase proliferation 2 times over control (SC200) or the concentration needed to inhibit promegestone induced proliferation by 50% (EC50). A value less than 1000 nM was considered active.
Aspects of the application of the procedure used are described in the following: C. Christensen, D. Gunter, D. Saunders and V. Malviya, Gynecol. Oncol., 28, 25 (1987); J. Puzas, R. Drivdahl, G. Howard and D. Baylink, Proc. Soc. Exp. Biol. Med., 166, 113 (1981); and I. Keydar, L. Chen, S. Karby, F. Weiss, J. Delarea, M. Raduy, S. Chaitcik and H. Brenner, Eur. J. Cancer, 15, 659 (1979). […]

TE85 human bone cells = test: Bone cell proliferation (TE85 cells); format: cell-based; conditions: average at 5 concentrations
Excerpt: A similar method was used to measure the effect of test compounds on TE85 human bone cells.
Tables 2 and 3 show several examples of the invention with molecular formulas, melting points, and activity expressed as the average increase in bone cell proliferation at 5 concentrations (CP) or as the concentration of compound in nanomoles per liter (×10^-9 M) required to displace 50% of I^125 labeled vinyl nortestosterone (VNT) from the human bone progestin receptor (BPR) (IC50). If there is no value reported in the CP column that particular compound was not tested.

Row | Structure (SMILES) | IC50 [1] | CP: average increase in bone cell proliferation at 5 concentrations (TE85 human bone cells) | also measured
1 | O=S(=O)(c1ccc(I)cc1)N1CCC2CCCc3c(Br)cccc3C2=N1 (stereo not shown) [Example 1, 8-Bromo-3,4,4a,5,6,7-hexahydro-2-(4-iodobenzenesulfonyl)-2H-benzo[6,7]cyclohepta[1,2c]pyridazine] | 0.076 µM |  | 
2 | O=S(=O)(c1ccc(I)cc1)N1CCC2CCc3c(Br)cccc3C2=N1 (stereo not shown) [Example 2, 8-Bromo-3,4-diazo-1,2,3,9,10,10a-hexahydro-3-(4-iodobenzenesulfonyl)phenanthrene] | 0.01 µM |  | 
3 | O=S(=O)(c1ccc(I)cc1)N1CCC2CCc3c(ccc(Br)c3Br)C2=N1 (stereo not shown) [Example 3, 7,8-Dibromo-3,4-diazo-1,2,3,9,10,10a-hexahydro-3-(4-iodobenzenesulfonyl)phenanthrene] | 0.0024 µM |  | EC (2-fold above control) ([2]; agonist, printed with + sign, T47D proliferation, 3H-thymidine, read-out: T47D: agonist SC200 (concentration stimulating 2fold above control)): 0.337 µM
4 | O=S(=O)(c1ccc(I)cc1)N1CCC2CCc3cc(Cl)ccc3C2=N1 (stereo not shown) [Example 4, 7-Chloro-3,4-diazo-1,2,3,9,10,10a-hexahydro-3-(4-iodobenzenesulfonyl)phenanthrene] | 0.0083 µM |  | EC50 [2]: 0.654 µM
5 | O=S(=O)(c1cc(Cl)ccc1Cl)N1CCC2CCc3cc(Cl)ccc3C2=N1 (stereo not shown) [Example 5, 7-Chloro-3,4-diazo-1,2,3,9,10,10a-hexahydro-3-(2,5-dichlorobenzenesulfonyl)phenanthrene] | 0.034 µM |  | EC50 [2]: 0.495 µM
6 | O=C(c1ccc(Cl)c(Cl)c1)N1CCC2CCc3ccccc3C2=N1 (stereo not shown) [Example 6, 3-(3,4-dichlorobenzoyl)-3,4-diazo-1,2,3,9,10,10a-hexahydrophenanthrene] |  | 115 | 
7 | O=C(c1cc(Cl)cc(Cl)c1)N1CCC2CCCc3ccccc3C2=N1 (stereo not shown) [Example 7, 2-(3,5-dichlorobenzoyl)-3,4,4a,5,6,7-hexahydro-2H-benzo[6,7]cyclohepta[1,2c]pyridazine] |  | 120 | 
8 | O=C(c1ccc(Cl)c(Cl)c1)N1CCC2CCCc3ccccc3C2=N1 (stereo not shown) [Example 9, 2-(3,4-dichlorobenzoyl)-3,4,4a,5,6,7-hexahydro-2H-benzo[6,7]cyclohepta[1,2c]pyridazine] |  | 123 | 
9 | O=C(c1ccc(F)c(F)c1)N1CCC2CCc3ccccc3C2=N1 (stereo not shown) [Example 10, 3-(3,4-difluorobenzoyl)-3,4-diazo-1,2,3,9,10,10a-hexahydrophenanthrene] |  | 112 | 
10 | O=C(c1cc(Cl)cc(Cl)c1)N1CCC2CCc3ccccc3C2=N1 (stereo not shown) [Example 11, 3-(3,5-dichlorobenzoyl)-3,4-diazo-1,2,3,9,10,10a-hexahydrophenanthrene] |  | 113 | 
11 | O=C(c1ccc(Cl)c(Cl)c1)N1CCC2COc3ccccc3C2=N1 (stereo not shown) [Example 12, 3-(3,4-dichlorobenzoyl)-3,4-diazo-9-oxa-1,2,3,9,10,10a-hexahydrophenanthren] |  | 107 | 
12 | S=C(c1cc(Cl)cc(Cl)c1)N1CCC2CCCc3ccccc3C2=N1 (stereo not shown) [Example 15, 2-(3,5-dichlorothiobenzoyl)-3,4,4a,5,6,7-hexahydro-2H-benzo[6,7]cyclohepta[1,2c]pyridazine] |  | 109 | 
13 | Fc1ccc(C(=S)N2CCC3CCCc4ccccc4C3=N2)cc1F (stereo not shown) [Example 16, 2-(3,4-difluorothiobenzoyl)-3,4,4a,5,6,7-hexahydro-2H-benzo[6,7]cyclohepta[1,2c]pyridazine] |  | 111 | 
14 | S=C(c1ccc(Cl)c(Cl)c1)N1CCC2CCCc3ccccc3C2=N1 (stereo not shown) [Example 17, 2-(3,4-dichlorothiobenzoyl)-3,4,4a,5,6,7-hexahydro-2H-benzo[6,7]cyclohepta[1,2c]pyridazine] |  | 115 | 
15 | S=C(c1ccc(Cl)c(Cl)c1)N1CCC2CCc3ccccc3C2=N1 (stereo not shown) [Example 19, 3-(3,4-dichlorothiobenzoyl)-3,4-diazo-1,2,3,9,10,10a-hexahydrophenanthrene] |  | 87 | 
16 | S=C(c1cc(Cl)cc(Cl)c1)N1CCC2CCc3ccccc3C2=N1 (stereo not shown) [Example 20, 3-(3,5-dichlorothiobenzoyl)-3,4-diazo-1,2,3,9,10,10a-hexahydrophenanthrene] |  | 103 | 
